Assay results published in patent US8841321B2, “Quinoline derivatives as antibacterial agents” (Janssen Pharmaceutica NV, priority 2005, dated 2014).
Converted amounts (≈) assume the structure as drawn.

How the values were obtained:
Experiment in all cases: Microtitre plate assay, IC90 determination
Assay type in all cases: cell-based
[1] = system: SPN 6305 (Streptococcus pneumoniae (ATCC6305)); settings: Streptococcus pneumoniae (ATCC6305)
Method in brief: (§1)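 Growth-inhibition endpoint: resazurin added 3 h after inoculation, plates incubated overnight, fluorescence at 530/590 nm after 24 h at 37 °C. Inocula of roughly 10–60 CFU per well in Mueller-Hinton medium; compounds titrated five-fold. IC90 reported as μg/ml.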

[2] = system: STA 29213 (Staphylococcus aureus (ATCC29213)); settings: Staphylococcus aureus (ATCC29213)
Method in brief: as §1

[3] = system: BSU 43639 (Bacillus subtilis (ATCC43639)); settings: for IC90 (μg/ml) BSU 43639: Bacillus subtilis (ATCC43639); for IC90: Bacillus subtilis, ATCC43639, Bacillus subtilis (ATCC43639), read-out: IC90 (μg/ml) BSU 43639
[4] = system: EFA 29212 (Enterococcus faecalis (ATCC29212)); settings: for IC90 (μg/ml) EFA 29212: Enterococcus faecalis (ATCC29212)
[5] = system: LMO 49594 (Listeria monocytogenes (ATCC49594)); settings: for IC90 (μg/ml) LMO 49594: Listeria monocytogenes (ATCC49594); for IC90: Listeria monocytogenes, ATCC49594, Listeria monocytogenes (ATCC49594), read-out: IC90 (μg/ml) LMO 49594
[6] = system: PAE 27853 (Pseudomonas aeruginosa (ATCC27853)); settings: for IC90 (μg/ml) PAE 27853: Pseudomonas aeruginosa (ATCC27853)
[7] = system: SPY 8668 (Streptococcus pyogens (ATCC8668)); settings: for IC90 (μg/ml) SPY 8668: Streptococcus pyogens (ATCC8668)
[8] = system: STA 25923 (Staphylococcus aureus (ATCC25923)); settings: Staphylococcus aureus (ATCC25923)
[9] = system: STA RMETH (methicilline resistant Staphylococcus aureus (MRSA), a clinical isolate from the University of Antwerp)

| IC90 [3] | IC90 ([4]; Enterococcus faecalis, ATCC29212, Enterococcus faecalis (ATCC29212), read-out: IC90 (μg/ml) EFA 29212) | IC90 [5] | IC90 ([6]; Pseudomonas aeruginosa, ATCC27853, Pseudomonas aeruginosa (ATCC27853), read-out: IC90 (μg/ml) PAE 27853) | IC90 ([7]; Streptococcus, ATCC8668, Streptococcus pyogens (ATCC8668), read-out: IC90 (μg/ml) SPY 8668) | IC90 ([9]; Staphylococcus aureus, MRSA, read-out: IC90 (μg/ml) STA RMETH) | SMILES | IC90 (μg/ml) SPN 6305 [1] | IC90 (μg/ml) STA 29213 [2] | IC90 (μg/ml) BSU 43639 [3] | IC90 (μg/ml) EFA 29212 [4] | IC90 (μg/ml) LMO 49594 [5] | IC90 (μg/ml) PAE 27853 [6] | IC90 (μg/ml) SPY 8668 [7] | IC90 (μg/ml) STA 25923 [8] | IC90 (μg/ml) STA RMETH [9] |
| --- | --- | --- | --- | --- | --- | --- | --- | --- | --- | --- | --- | --- | --- | --- | --- |
|  |  |  |  |  |  | COc1nc2ccc(Br)cc2cc1C(c1ccccc1)C(O)(CCCN1CCCC1)c1ccc2ccccc2c1 (racemic) [Compound 48] | 59.6 µg/mL (≈ 100 µM) | 47.3 µg/mL (≈ 79.4 µM) | 59.6 µg/mL (≈ 100 µM) | 59.6 µg/mL (≈ 100 µM) | 23.7 µg/mL (≈ 39.8 µM) | 47.3 µg/mL (≈ 79.4 µM) | 47.3 µg/mL (≈ 79.4 µM) | 9.4 µg/mL (≈ 15.8 µM) | 9.4 µg/mL (≈ 15.8 µM) |
|  |  |  |  |  |  | COc1nc2ccc(Br)cc2cc1C(c1ccccc1)C(O)(CCCN1CCCC1)c1ccc2ccccc2c1 (racemic) [Compound 49] | 11.9 µg/mL (≈ 20 µM) | 47.3 µg/mL (≈ 79.4 µM) | 59.6 µg/mL (≈ 100 µM) | 47.3 µg/mL (≈ 79.4 µM) | 47.3 µg/mL (≈ 79.4 µM) | 53.1 µg/mL (≈ 89.2 µM) | 47.3 µg/mL (≈ 79.4 µM) | 59.6 µg/mL (≈ 100 µM) | 59.6 µg/mL (≈ 100 µM) |
|  |  |  |  |  |  | CNCCCCC(O)(c1ccc2ccccc2c1)C(c1ccccc1)c1cc2cc(Br)ccc2nc1OC (racemic) [Compound 75] | 0.9 µg/mL (≈ 1.58 µM) | 2.02 µg/mL (≈ 3.55 µM) |  | 4.03 µg/mL (≈ 7.08 µM) |  | 2.02 µg/mL (≈ 3.55 µM) | 1.8 µg/mL (≈ 3.16 µM) |  | 11.36 µg/mL (≈ 19.9 µM) |
| 9.5 µg/mL (≈ 15.8 µM) | 9.5 µg/mL (≈ 15.8 µM) | 9.5 µg/mL (≈ 15.8 µM) | 1.9 µg/mL (≈ 3.17 µM) | 1.9 µg/mL (≈ 3.17 µM) | 9.5 µg/mL (≈ 15.8 µM) | CSc1nc2ccc(Br)cc2cc1C(c1ccccc1)C(O)(CCCCN(C)C)c1ccc2ccccc2c1 (single isomer, unassigned) [Compound 4] | 1.9 µg/mL (≈ 3.17 µM) | 1.9 µg/mL (≈ 3.17 µM) |  |  |  |  |  |  |  |
|  |  |  |  |  |  | COc1ccc2cc(C(O)(CCCCN(C)C)C(c3ccccc3)c3cc4cc(Br)ccc4nc3OC)ccc2c1 (single isomer, unassigned) [Compound 6] | 4.9 µg/mL (≈ 7.99 µM) | 4.3 µg/mL (≈ 7.01 µM) | 9.7 µg/mL (≈ 15.8 µM) | 9.7 µg/mL (≈ 15.8 µM) | 9.7 µg/mL (≈ 15.8 µM) | 9.7 µg/mL (≈ 15.8 µM) | 1.9 µg/mL (≈ 3.1 µM) |  | 9.7 µg/mL (≈ 15.8 µM) |
|  |  |  |  |  |  | COc1nc2ccc(Br)cc2cc1C(c1ccccc1)C(O)(CCCCN1CCN(C)CC1)c1ccc2ccccc2c1 (single isomer, unassigned) [Compound 112] | 2.54 µg/mL (≈ 3.98 µM) | 2.02 µg/mL (≈ 3.16 µM) |  | 2.02 µg/mL (≈ 3.16 µM) |  | 2.02 µg/mL (≈ 3.16 µM) | 2.02 µg/mL (≈ 3.16 µM) |  | 2.54 µg/mL (≈ 3.98 µM) |
|  |  |  |  |  |  | COc1nc2ccc(Br)cc2cc1C(c1ccccc1)C(O)(CCCCN1CCN(C)CC1)CCc1ccccc1 (single isomer, unassigned) [Compound 137] | 1.95 µg/mL (≈ 3.16 µM) | 1.95 µg/mL (≈ 3.16 µM) |  | 9.77 µg/mL (≈ 15.8 µM) |  | 9.77 µg/mL (≈ 15.8 µM) | 1.95 µg/mL (≈ 3.16 µM) |  | 12.3 µg/mL (≈ 19.9 µM) |
|  |  |  |  |  |  | COc1nc2ccc(Br)cc2cc1C(c1ccccc1)C(O)(CCCCN1CCN(C)CC1)CCc1ccccc1 (single isomer, unassigned) [Compound 138] | 2.19 µg/mL (≈ 3.55 µM) | 2.45 µg/mL (≈ 3.97 µM) |  | 1.74 µg/mL (≈ 2.82 µM) |  | 2.19 µg/mL (≈ 3.55 µM) | 0.87 µg/mL (≈ 1.41 µM) |  | 12.3 µg/mL (≈ 19.9 µM) |
|  |  |  |  |  |  | COc1nc2ccc(Br)cc2cc1C(c1ccccc1)C(O)(CCCCN1CCN(C)CC1)CCc1ccc(C)cc1 (single isomer, unassigned) [Compound 141] | 1.99 µg/mL (≈ 3.16 µM) | 1.99 µg/mL (≈ 3.16 µM) |  | 4.46 µg/mL (≈ 7.07 µM) |  | 4.46 µg/mL (≈ 7.07 µM) | 4.46 µg/mL (≈ 7.07 µM) |  | 14.12 µg/mL (≈ 22.4 µM) |
|  |  |  |  |  |  | CSc1nc2ccc(Br)cc2cc1C(c1ccccc1)C(O)(CCCCN(C)C)c1ccccc1 (stereo not drawn) [Compound 1] | 1.74 µg/mL (≈ 3.17 µM) | 1.74 µg/mL (≈ 3.17 µM) |  | 6.92 µg/mL (≈ 12.6 µM) |  | 1.95 µg/mL (≈ 3.55 µM) | 1.74 µg/mL (≈ 3.17 µM) |  | 12.3 µg/mL (≈ 22.4 µM) |
| 43.7 µg/mL (≈ 79.5 µM) |  | 43.7 µg/mL (≈ 79.5 µM) |  |  |  | CSc1nc2ccc(Br)cc2cc1C(c1ccccc1)C(O)(CCCCN(C)C)c1ccccc1 (stereo not drawn) [Compound 2] | 21.9 µg/mL (≈ 39.8 µM) | 43.7 µg/mL (≈ 79.5 µM) |  | 43.7 µg/mL (≈ 79.5 µM) |  | 43.7 µg/mL (≈ 79.5 µM) | 8.7 µg/mL (≈ 15.8 µM) |  | 43.7 µg/mL (≈ 79.5 µM) |
